{"source": "patent US8785483B2", "about": "“Methods for treating COPD” (The Board of Regents of the University of Texas System, priority 2010, dated 2014)", "key": {"SAEC": {"test_system": "SAEC", "experiment": "IL-13-induced ROS levels (H2DCF-DA fluorescence)", "assay_type": "cell-based, human", "conditions": "fidarestat 10 μM overnight, IL-13 25 ng/ml 1 h", "description": "FIGS. 3A-3B. Inhibition of AR prevents IL-13-induced reactive oxygen species (ROS) production in SAEC. (A) Approximately 5×10^4 cells were seeded on 2-chambered slides and starved in serum-free basal medium without or with fidarestat overnight. The cells were washed with 1×HBSS and incubated with 10 μM H2DCF-DA at 37° C. for 30 min, washed again and treated with IL-13 (25 ng/ml) for 1 h. The cells were washed with cold 1×HBSS twice and mounted using floursave mounting medium with DAPI. Photomicrographs were acquired using a fluorescence microscope (Nikon). A representative image is shown (n=4); Magnification 400×. (B) Approximately 10,000 SAEC were plated per well in a 96-well plate and serum-starved for 24 h without or with fidarestat. […] At the end of the treatment, cells were washed twice with HBSS and fluorescence was determined at 485 nm excitation and 538 nm emission wavelengths. Relative ROS production is expressed as mean fluorescence intensity (MFI) (arbitrary units). […] The cells on the culture slide were mounted using floursave mounting medium with DAPI after which photomicrographs were acquired using a fluorescence microscope (Nikon). Fluorescence was determined using 485 nm excitation and 538 nm emission wavelengths for cells in 96-well plate and relative ROS production is expressed as mean fluorescence intensity (MFI) (arbitrary units)."}, "Muc5AC": {"test_system": "Muc5AC", "experiment": "RT-PCR of Muc5AC in IL-13-treated SAEC monolayer", "assay_type": "cell-based, human", "conditions": "SAEC monolayer at ALI, IL-13 18 h", "description": "FIGS. 6A-6B. AR inhibition prevents IL-13-induced expression of Mucin and transcription factor SPDEF in airway epithelial cell monolayer. (A) The airway epithelial cell monolayer at ALI was serum starved without or with fidarestat and incubated with IL-13 for 18 h. Total RNA was isolated and subsequently RT-PCR was performed to assess the expression of Muc5AC and SPDEF. The bar diagrams show densitometric analysis of the corresponding blots (n=4). *p<0.001 vs Control; **p<0.001 vs IL-13; (B) The monolayer of ciliated airway cells at ALI was treated with AR inhibitor for 24 h and subsequently incubated with IL-13 for 24 or 48 h. At the end of incubation, cell lysate was prepared and subjected to western blotting using antibodies against Muc5AC, Muc5B, and SPDEF. The membranes were stripped and re-probed with antibodies against GAPDH to show the equal loading of protein. A representative blot is shown (n=4). *p<0.0001 vs Control; **p<0.001 vs IL-13.\nFor air-liquid interface (ALI) culture, SAEC were seeded at 8.5×10^4 cells/12-mm-diameter PET transparent insert with […] pores (12-well millicell culture insert; Millipore) and pre-coated with rat tail collagen type-1 (Sigma-Aldrich). The cells were grown submerged in the differentiation medium as described earlier by Zhen et al. (Am J Respir Cell Mol Biol 36: 244-253, 2007). […]"}}}
{"molecule": "NC(=O)[C@@H]1C[C@]2(NC(=O)NC2=O)c2cc(F)ccc2O1", "note": "[fidarestat, (2S,4S)-2-aminoformyl-6-fluoro-spiro[chroman-4,4′-imidazolidine]-2′,5′-dione]", "values": [{"measurement": "prevention of IL-13-induced increase in ROS levels", "setting": "SAEC", "value": 80, "unit": "%"}, {"measurement": "IL-13-induced Muc5AC-specific RNA expression", "setting": "Muc5AC", "value": "significantly prevented the increase"}]}
